From PMC10102067, “Synthesis of vancomycin fluorescent probes that retain antimicrobial activity, identify Gram-positive bacteria, and detect Gram-negative outer membrane damage” (Communications Biology, 2023)
In brackets after ≈: the same amount, converted by molar mass. Where a name gives a salt, the structure may show the parent alone. Read-outs that look alike come from different tables or passages of the source. Bridge positions count the residues as written; N and C are the ends. Square brackets hold non-standard residues; d marks the D form. Peptide text beside a SMILES is read from it. * marks the point of attachment. Decanoyl(3R-OH) = CCCCCCC[C@@H](O)CC(=O)*; dDab = NCC[C@@H](N)C(=O)O; Dab = NCC[C@H](N)C(=O)O

Columns and labels:
[1] = tested on: E. coli; test: microbe, parasite or virus in culture
Method: Bacteria were obtained from the American Type Culture Collection (ATCC; Manassas, VA, USA), Merck Sharp & Dohme (Kenilworth, NJ), the Coli Genetic Stock Center (CGSC, Yale University), Network on Antimicrobial Resistance in Staphylococcus aureus (NARSA) via BEI Resources (www.beiresources.org) and independent academic clinical isolate and mutant collections. All species used in this study were described fully in Table S4. Bacteria were cultured in Cation-Adjusted Mueller-Hinton Broth (CAMHB, Bacto Laboratories, Cat No. 212322) or Muller Hinton Broth (MHB, Bacto Laboratories, Cat No. 211443) at 37 °C overnight. A sample of each culture was then diluted 50-fold in MHB and incubated at 37 °C for 1.5–3 h. The stock solutions of vancomycin probes 7, 8 and 9 were prepared at 1.28 mg/mL in sterile water. The compounds were serially diluted two-fold across the wells, with concentrations ranging from 0.06 µg/mL to 128 µg/mL, plated in duplicate. […]

[2] = tested on: E. coli ATCC 25922; test: Permeability test in Gram-negative bacteria, flow cytometry method (Fig. 4i); format: cell-based; conditions: compound 0.125–128 µg/mL 1 h 37 °C, then probe 9 32 µg/mL 30 min
Method: E. coli ATCC 25922 cells were cultured in LB at 37 °C overnight. […] The resultant mid-log phase cultures were harvested and washed once with HBSS, then resuspended in HBSS to an OD600 of 1. Then 1 mL of the cultures were transferred to Eppendorf tubes and centrifuged. Solutions (1 mL) of antibiotics (0.125–128 µg /mL) and isopropanol (100 %) was added, then left for 1 h at 37 °C with shaking (180 rpm). […] Bacteria were washed again with HBSS, the pellets were suspended in 200 µL of HBSS, and 100 µL of the suspended bacteria solution was added into black 96-well plates (Black flat bottom, 96-Well plate, Corning, Cat No. CLS3915-100EA) for Tecan plate reader measurement (Tecan Plate Reader, Infinite M1000 Pro). Excitation: 475 nm; Emission: 550 nm. On the other hand, suspended bacteria solution was then diluted 1000-fold in HBSS for flow cytometer measurement (Cytoflex S, Beckman Coulter, Inc. 250 S. Kraemer Blvd. Brea, CA 92821 U.S.A.). The detector used here was FITC (Excitation 488 nm; Emission 525/40 nm). 40000 events were collected. The data was analysed using Kaluza Analysis 2.1 software (Beckman Coulter, Inc. 250 S. Kraemer Blvd. Brea, CA 92821 U.S.A.) and statistical software GraphPad Prism 8 (San Diego, CA, U.S.A.).

[3] = Table S2: CGSC7139 DC2 mutant, CaMHB, non-treated polystyrene plate
[4] = Table S2: CGSC7139 DC2 mutant, MHB, non-treated polystyrene plate
[5] = Table S2: MB4902 LpxC mutant, CaMHB, non-treated polystyrene plate
[6] = Table S2: MB4902 LpxC mutant, MHB, non-treated polystyrene plate
[7] = Escherichia coli, ATCC25922, read-out: E. coli MIC, Table S2: ATCC 25922 FDA Control, CaMHB, non-treated polystyrene plate
[8] = Escherichia coli, ATCC25922, read-out: E. coli MIC, Table S2: ATCC 25922 FDA Control, MHB, non-treated polystyrene 96-well plate
[9] = Escherichia coli, read-out: E. coli MIC, Table S2: CGSC7139 DC2 mutant, CaMHB, non-treated polystyrene plate
[10] = Escherichia coli, read-out: E. coli MIC, Table S2: CGSC7139 DC2 mutant, MHB, non-treated polystyrene plate
[11] = Escherichia coli, read-out: E. coli MIC, Table S2: MB4827 K12, CaMHB, non-treated polystyrene plate
[12] = Escherichia coli, read-out: E. coli MIC, Table S2: MB4827 K12, MHB, non-treated polystyrene plate
[13] = Escherichia coli, read-out: E. coli MIC, Table S2: MB4902 LpxC mutant, CaMHB, non-treated polystyrene plate
[14] = Escherichia coli, read-out: E. coli MIC, Table S2: MB4902 LpxC mutant, MHB, non-treated polystyrene plate
[15] = Table S2: ATCC 25922 FDA Control, CaMHB, non-treated polystyrene plate
[16] = Table S2: ATCC 25922 FDA Control, MHB, non-treated polystyrene 96-well plate
[17] = Table S2: MB4827 K12, CaMHB, non-treated polystyrene plate
[18] = Table S2: MB4827 K12, MHB, non-treated polystyrene plate

| Molecule | E. coli MIC [1, 3] [µg/mL] | E. coli MIC [1, 4] [µg/mL] | E. coli MIC [1, 5] [µg/mL] | E. coli MIC [1, 6] [µg/mL] | outer membrane damage: fluorescence of probe 9 labelling after treatment (in words) [2] | MIC [1, 9] [µg/mL] | MIC [1, 10] [µg/mL] | MIC [1, 13] [µg/mL] | MIC [1, 14] [µg/mL] | also measured |
| --- | --- | --- | --- | --- | --- | --- | --- | --- | --- | --- |
| CCCCCCC[C@@H](O)CC(=O)N[C@H](CCN)C(=O)N[C@H]1CCNC(=O)[C@H](CC(C)C)NC(=O)[C@H](CCN)NC(=O)[C@H](CCN)NC(=O)[C@H](CC(C)C)NC(=O)[C@@H](Cc2ccccc2)NC(=O)[C@H](CCN)NC1=O [Octapeptin C4] ({Decanoyl(3R-OH)}-[dDab][Dab][Dab][dF]L[Dab][Dab]L; lactam 2-C (inferred); N-terminus assumed) | 2 to 8 | 1 to 2 | 2 | 2 | substantially higher concentrations before membrane damage was seen |  |  |  |  |  |
| CC[C@H]1OC(=O)[C@H](C)[C@@H](O[C@H]2C[C@@](C)(OC)[C@@H](O)[C@H](C)O2)[C@H](C)[C@@H](O[C@@H]2O[C@H](C)C[C@H](N(C)C)[C@H]2O)[C@](C)(O)C[C@@H](C)C(=O)[C@H](C)[C@@H](O)[C@]1(C)O [Erythromycin] |  |  |  |  |  | > 64 | > 64 | 8 (≈ 10.9 µM) | 8 (≈ 10.9 µM) | MIC [1, 7]: 64 µg/mL (≈ 87.2 µM); MIC [1, 8]: 64 µg/mL (≈ 87.2 µM); MIC [1, 11]: > 64 µg/mL; MIC [1, 12]: 64 µg/mL (≈ 87.2 µM) |
| CC[C@H](C)[C@@H]1NC(=O)CNC(=O)[C@H](CCCNC(=N)N)NC(=O)[C@H](Cc2ccc(O)cc2)NC(=O)[C@@H]2CSSC[C@H](NC1=O)C(=O)N[C@@H](Cc1ccc(O)cc1)C(=O)N[C@@H](CCCNC(=N)N)C(=O)N[C@@H](CCCNC(=N)N)C(=O)N[C@H](C(=O)N[C@@H](CCCNC(=N)N)C(N)=O)CSSC[C@H](NC(=O)[C@H](Cc1c[nH]c3ccccc13)NC(=O)[C@@H](N)CCCCN)C(=O)N[C@@H](Cc1ccccc1)C(=O)N[C@@H](CCCNC(=N)N)C(=O)N[C@@H](C(C)C)C(=O)N2 [Tachyplesin-1] (H-KWCFRVCYRGICYRRCR-NH2; disulfide 3-16, 7-12 (inferred); N-terminus and C-terminus assumed) |  |  |  |  | increased fluorescence at the lowest concentrations |  |  |  |  |  |
| COc1cc(Cc2cnc(N)nc2N)cc(OC)c1OC [Trimethoprim] |  |  |  |  |  | 0.25 to 0.5 (≈ 0.861 to 1.72 µM) | 0.25 to 0.5 (≈ 0.861 to 1.72 µM) | 0.5 to 1 (≈ 1.72 to 3.44 µM) | 0.5 to 1 (≈ 1.72 to 3.44 µM) | E. coli MIC [1]: 1 to 2 µg/mL; MIC ([1]; Escherichia coli, ATCC25922, read-out: E. coli MIC): 1 µg/mL (≈ 3.44 µM); MIC ([1]; Escherichia coli, read-out: E. coli MIC): 0.5 µg/mL (≈ 1.72 µM) |
| Polymyxin B |  |  | 0.03 to 0.06 | 0.03 to 0.06 |  |  |  |  |  | E. coli MIC ([1]; ATCC 29522, NBS 96-well plates (Table 2)): 0.06 µg/mL; E. coli MIC ([1]; CFT073, NBS plates (Table 2)): ≤0.03 µg/mL; E. coli MIC ([1]; CFT073 WaaL mutant, NBS plates (Table 2)): ≤0.03 µg/mL; E. coli MIC ([1]; DC2 mutant, NBS plates (Table 2)): ≤0.03 µg/mL; E. coli MIC ([1]; LpxC mutant, NBS plates (Table 2)): ≤0.03 µg/mL; E. coli MIC ([1]; MB4827 K12, NBS plates (Table 2)): ≤0.03 µg/mL; E. coli MIC [1, 15]: 0.125 µg/mL; E. coli MIC [1, 16]: 0.125 µg/mL; E. coli MIC [1, 17]: 0.125 µg/mL; E. coli MIC [1, 18]: 0.125 µg/mL |
| CNC(C)C1CCC(N)C(OC2C(N)CC(N)C(OC3OCC(C)(O)C(NC)C3O)C2O)O1 (centres unmarked) [Gentamicin sulfate] |  |  |  |  |  | 0.5 to 2 | 0.5 to 4 | 0.25 to 0.5 | 0.25 to 0.5 | MIC [1, 7]: 1 µg/mL; MIC [1, 8]: 2 µg/mL; MIC [1, 11]: 0.5 to 1 µg/mL; MIC [1, 12]: 0.5 to 1 µg/mL |
| CN[C@H](CC(C)C)C(=O)N[C@H]1C(=O)N[C@@H](CC(N)=O)C(=O)N[C@H]2C(=O)N[C@H]3C(=O)N[C@H](C(=O)N[C@H](C(=O)O)c4cc(O)cc(O)c4-c4cc3ccc4O)[C@H](O)c3ccc(c(Cl)c3)Oc3cc2cc(c3O[C@@H]2O[C@H](CO)[C@@H](O)[C@H](O)[C@H]2O[C@H]2C[C@](C)(N)[C@H](O)[C@H](C)O2)Oc2ccc(cc2Cl)[C@H]1O [1 Vancomycin, Vancomycin] |  |  |  |  |  |  |  |  |  | MIC ([1]; 3 h): > 64 µg/mL |
| CC[C@H](C)[C@H](NC(=O)[C@@H](NC(=O)[C@H](CO)NC(=O)[C@H](C)NC(=O)[C@@H](NC(=O)[C@H](CCCCN)NC(=O)[C@H](CCCCN)NC(=O)[C@@H](NC(=O)[C@@H](NC(=O)[C@H](CC(=O)O)NC(=O)[C@H](Cc1ccccc1)NC(=O)[C@H](CC(C)C)NC(=O)CN)C(C)C)[C@@H](C)CC)C(C)C)C(C)C)C(=O)NCC(=O)NCC(=O)N[C@@H](CC(C)C)C(N)=O [Citropin 1.1] (H-GLFDVIKKVASVIGGL-NH2; N-terminus and C-terminus assumed) |  |  |  |  | substantially higher concentrations before membrane damage was seen |  |  |  |  |  |
| CC(C)[C@@H]1NC(=O)CNC(=O)[C@H](CC(N)=O)NC(=O)[C@H](CCCNC(=N)N)NC(=O)[C@H](Cc2ccc(O)cc2)NC(=O)[C@H](C(C)C)NC(=O)[C@@H]2CSSC[C@H](NC(=O)[C@H](C(C)C)NC(=O)[C@H](CCCNC(=N)N)NC1=O)C(=O)N[C@@H](Cc1ccc(O)cc1)C(=O)N[C@@H](CCCNC(=N)N)C(=O)N[C@@H](CCCNC(=N)N)C(=O)N[C@H](C(=O)N[C@@H](CC(N)=O)C(=O)O)CSSC[C@H](NC(=O)[C@H](Cc1ccccc1)NC(=O)CN)C(=O)N[C@@H](Cc1c[nH]c3ccccc13)C(=O)N[C@@H](Cc1ccc(O)cc1)C(=O)N[C@@H](C(C)C)C(=O)N2 [Arenicin-3] (H-GFCWYVCVYRNGVRVCYRRCN-OH; disulfide 3-20, 7-16; N-terminus and C-terminus assumed) | 2 to 8 | 2 to 8 | 1 | 1 to 2 | increased fluorescence at the lowest concentrations |  |  |  |  |  |
| Colistin sulfate | 0.125 to 0.25 | 0.125 | 0.03 to 0.06 | 0.03 to 0.06 |  |  |  |  |  | E. coli MIC [1, 15]: 0.25 µg/mL; E. coli MIC [1, 16]: 0.25 µg/mL; E. coli MIC [1, 17]: 0.06 to 0.25 µg/mL; E. coli MIC [1, 18]: 0.06 to 0.125 µg/mL |
